Data reported in US20260092086A1, “ANTIMICROBIAL LASSO PEPTIDES” (priority 2022, published 2026).
Values after ≈ are worked out from the molar mass of the structure shown. “Also recorded” adds a separate entry of the source. Like-named read-outs stand apart in the source and are kept apart here. Where a SMILES comes first, the peptide text is derived from it.

Key:
[1] = tested on: Enterobacter nimipressuralis DSM 18955; type: cell-based
[2] = tested on: clinical isolates of Enterobacter; assay: Spot-on-lawn assay, panel of clinical isolates (Table 7); type: cell-based
Experimental: The type strain of Enterobacter cloacae (ATCC 13047) tested as discussed above was isolated from human cerebrospinal fluid in 1890^66 before the era of antibiotics. The activity of cloacaenodin was also tested against more recent clinical isolates. A panel of two (2) clinical isolates of Enterobacter using the spot-on-lawn assay was tested (Table 7).
Cloacaenodin was evaluated against several common laboratory strains as well as commercially acquired strains using a spot-on-lawn assay.^45 Strains were streaked out onto LB agar plates and incubated overnight at their recommended temperatures. A single colony was then used to inoculate an overnight culture in 5 mL of LB broth. After shaking at 250 rpm at the recommended temperature for each strain, 50 μL of the overnight culture was used to inoculate 5 mL of LB broth (volume ratio 1:100). These cultures were grown for a few hours until they reached the exponential phase (OD600˜0.4-0.6) before being added to 10 mL of soft M63 agar at a final cell density of 10^7 CFUs/mL, or 10^8 CFUs total in 10 mL. […] The plates were incubated overnight at the strains' recommended temperatures and analyzed the next morning for activity. […]

[3] = tested on: Enterobacter ludwigii MGH216; type: cell-based
[4] = tested on: Enterobacter hormaechei ATCC 700323; assay: Spot-on-lawn assay in M63 agar; type: cell-based; conditions: purified cloacaenodin in water
Experimental: (§1) Cloacaenodin was evaluated against several common laboratory strains as well as commercially acquired strains using a spot-on-lawn assay.^45 Strains were streaked out onto LB agar plates and incubated overnight at their recommended temperatures. A single colony was then used to inoculate an overnight culture in 5 mL of LB broth. After shaking at 250 rpm at the recommended temperature for each strain, 50 μL of the overnight culture was used to inoculate 5 mL of LB broth (volume ratio 1:100). These cultures were grown for a few hours until they reached the exponential phase (OD600˜0.4-0.6) before being added to 10 mL of soft M63 agar at a final cell density of 10^7 CFUs/mL, or 10^8 CFUs total in 10 mL. The M63 soft agar was composed of 2 g/L of (NH4)2SO4 (EMD MilliporeSigma), 13.6 g/L of KH2PO4 (Fisher), 40 mg/L of each of the 20 common amino acids, 0.2% glucose (Sigma), 0.00005% w/v thiamine hydrochloride (Sigma), and 0.65% w/v bacteriological-grade agar (Apex Bioresearch). […] Upon solidification, 10 μL of purified cloacaenodin in water at two-fold dilutions were then spotted onto the agar and allowed to dry. The plates were incubated overnight at the strains' recommended temperatures and analyzed the next morning for activity. The MIC is defined as the last dilution where a spot was visible.

[5] = tested on: Klebsiella aerogenes ATCC 13048; assay: Spot-on-lawn assay in M63 agar; type: cell-based; conditions: purified cloacaenodin in water
Experimental: as §1

[6] = tested on: Salmonella enterica serovar Newport; assay: Spot-on-lawn assay in M63 agar; type: cell-based; conditions: purified cloacaenodin in water
Experimental: as §1

[7] = tested on: Enterobacter nimipressuralis DSM 18955; assay: Spot-on-lawn assay in M63 agar; type: cell-based
Experimental: as §1

[8] = tested on: Enterobacter kobei BAA-260; assay: Spot-on-lawn assay in M63 agar; type: cell-based; conditions: purified cloacaenodin in water
Experimental: as §1

[9] = tested on: Enterobacter kobei MGH178; type: cell-based
Experimental: as §1
(§2) Twelve (12) clinical isolates were tested at the Broad Institute of MIT and Harvard, with a subset of strains from BioProject PRJNA292902, BioProject PRJNA271899, BioProject PRJNA201976, and BioProject 219285. The strains were tested following the same spot-on-lawn assay protocol described above, but with BD Bacto Agar used instead. All cloacaenodin-treated isolates were incubated at 37° C. overnight, and the assay was repeated at least three times (on biological replicates) for each of the twelve (12) strains. We defined a strain to be susceptible if it was reliably susceptible in at least three biological replicates.

[10] = tested on: Enterobacter asburiae MGH243; type: cell-based
Experimental: as §1, §2

[11] = tested on: Enterobacter hormaechei UCI35; type: cell-based
Experimental: as §1, §2

[12] = tested on: Enterobacter cloacae UCI102; type: cell-based
Experimental: as §1, §2

[13] = tested on: Enterobacter asburiae UCI193; type: cell-based
Experimental: as §1, §2

[14] = tested on: Enterobacter cloacae; assay: Microscopy of cells treated with sub-MIC cloacaenodin; type: cell-based; conditions: sub-MIC cloacaenodin (230 nM), 16 hours in M63 media
Experimental: After a 96-well plate of E. cloacae grew for 16 hours at 30° C. with varying concentrations of cloacaenodin in M63 media, samples were imaged using a Zeiss Observer Z1 automated inverted microscope with a cage incubator kept at 37° C. The microscope was used with a 100× Zeiss chroma objective with oil immersion and 35 ms exposure transmitted light and controlled using SlideBook software. Images were viewed using the software ImageJ.

[15] = tested on: Enterobacter cloacae UCI102; assay: MIC in M63 media (liquid); type: cell-based; conditions: clinical isolate Enterobacter cloacae UCI102
Experimental: For liquid inhibition assays, 5 mL LB broth was inoculated with 40-50 μL of an overnight culture of E. cloacae or E. amnigenus. […] The plate was shaken at 30° C. at 250 rpm for E. cloacae, and 37° C. at 250 rpm for E. amnigenus. The OD600 was measured at 8-hour and 16-hour increments. The MIC is defined as the lowest concentration of cloacaenodin for which growth (as assessed by the OD600) was inhibited.

[16] = Heating assay at 95° C., LC-MS; type: physicochemical; conditions: 1.5 hours
Experimental: The threaded nature of the collected cloacaenodin sample was next sought to be verified, because the threaded structure is crucial to the bioactivity of lasso peptides.^50 Heat treatment of certain lasso peptides leads to their unthreading: the unthreaded species often elutes differently than the threaded peptide.^48,49 We performed a heating assay at 95° C. and noticed that after 1.5 hours ˜5% of cloacaenodin eluted at around 12.4 min instead of 10.5 min (FIGS. 7A-7B). Upon treatment with carboxypeptidase^48,49, this later eluting peak was eliminated, and various earlier-eluting peaks consistent with C-terminal truncations of 6, 9, or 10 amino acids were then observed. These truncations were not observed for the unheated cloacaenodin sample when treated with carboxypeptidase (FIGS. 7A-8B). […] This unthreaded variant in the extract may have formed because of thermal unthreading during expression and purification, exposure to organic solvents during purification, or both. To ensure that the sample we collected from the HPLC remained stable, we froze the sample immediately upon collection until lyophilization, such that the peptide was minimally kept in solution.

SMILES: CC[C@H](C)[C@@H]1NC(=O)[C@H](CCCNC(=N)N)NC(=O)[C@H](CC(=O)O)NC(=O)[C@H](C(C)C)NC(=O)[C@H](CO)NC(=O)[C@H](Cc2c[nH]cn2)NC(=O)CNC(=O)CC[C@@H](C(=O)N[C@@H](Cc2ccc(O)cc2)C(=O)N[C@@H](Cc2ccccc2)C(=O)NCC(=O)N2CCC[C@H]2C(=O)N2CCC[C@H]2C(=O)NCC(=O)N[C@@H](CC(C)C)C(=O)N2CCC[C@H]2C(=O)NCC(=O)N2CCC[C@H]2C(=O)N[C@H](C(=O)N[C@@H](CC(C)C)C(=O)N[C@@H](Cc2ccccc2)C(=O)N[C@@H](Cc2ccc(O)cc2)C(=O)N[C@@H](CO)C(=O)O)C(C)C)NC(=O)[C@@H]2CCCN2C1=O [cloacaenodin] (HELM PEPTIDE1{G.H.S.V.D.R.I.P.E.Y.F.G.P.P.G.L.P.G.P.V.L.F.Y.S}$PEPTIDE1,PEPTIDE1,1:R1-9:R3$$$V2.0; C-terminus assumed)
- MIC in M63 media [1]: 0.94 µM (≈ 2.43 µg/mL)
- minimal inhibitory concentration (MIC) ([2]; six of the clinical isolates, three classified as carbapenem resistant): low micromolar
- antimicrobial activity ([2]; the other clinical isolates of Table 7): either weak or no activity
- MIC in M63 media [3]: 0.23 µM (≈ 0.594 µg/mL)
- antimicrobial activity (zones of inhibition) [4]: no observed activity
- antimicrobial activity (zones of inhibition) [5]: no observed activity
- antimicrobial activity (zones of inhibition) [6]: no observed activity
- strain susceptible to cloacaenodin ([7]; Lelliottia nimipressuralis DSM 18955): * Lelliottia nimipressuralis
- antimicrobial activity (zones of inhibition) ([7]; spot-on-lawn, M63 agar, purified cloacaenodin in water): zones of inhibition in the low micromolar range
- antimicrobial activity (zones of inhibition) [8]: no observed activity
- MIC in M63 media [9]: 1 µM (≈ 2.58 µg/mL)
- MIC in M63 media [10]: 2 µM (≈ 5.17 µg/mL)
- MIC in M63 media [11]: 1 µM (≈ 2.58 µg/mL)
- MIC in M63 media [12]: 0.5 µM (≈ 1.29 µg/mL)
- MIC in M63 media [13]: 2 µM (≈ 5.17 µg/mL)
- strain susceptible to cloacaenodin ([13]; clinical strain UCI193, reliably susceptible in at least three biological replicates): * UCI193
- filamentation phenotype [14]: degree of filamentation; also recorded: filamentation phenotype
- MIC in M63 media [15]: (agar)/230 nM
- fraction eluting as later (unthreaded) peak after heating [16]: ~5%
